Earlier results in patent US20050250746A1, “Premenstrual dysphoric disorder medication” (priority 2004, published 2005).

Tests used:
[1] = system: Severe Premenstrual Syndrome
Premenstrual Syndrome = details: review of published research
[2] = system: Severe Premenstrual Syndrome or Premenstrual Dysphoric Disorder; details: continuous or intermittent dosing

Cc1nnc2n1-c1ccc(Cl)cc1C(c1ccccc1)=NC2 [alpazolam, Alprazolam]
reduction in daily symptom report scores ([1]; double-blind, versus placebo): 50%

CC(=O)[C@H]1CC[C@H]2[C@@H]3CCC4=CC(=O)CC[C@]4(C)[C@H]3CC[C@]12C [progesterone]
difference between progesterone and placebo (Premenstrual Syndrome): no clinically important difference between progesterone and placebo
effectiveness of progesterone therapy versus placebo ([1]; oral progesterone): no better than placebo

CN[C@H]1CC[C@@H](c2ccc(Cl)c(Cl)c2)c2ccccc21 [seratraline, Sertraline]
improvement versus placebo group [2]: improved significantly more than the placebo group
